Source: ChEMBL document CHEMBL3991601, “The target landscape of clinical kinase drugs” (Science, 2017)
Calls of active or inactive are those of the source.

Legend:
[1] = target: Epidermal growth factor receptor (Homo sapiens, UniProt P00533)
Focal adhesion kinase 1 = Focal adhesion kinase 1 (Homo sapiens, UniProt Q05397)
[2] = target: T1, Receptor-type tyrosine-protein kinase FLT3 (Homo sapiens, UniProt P36888)
T1 sequence (P36888 whole entry): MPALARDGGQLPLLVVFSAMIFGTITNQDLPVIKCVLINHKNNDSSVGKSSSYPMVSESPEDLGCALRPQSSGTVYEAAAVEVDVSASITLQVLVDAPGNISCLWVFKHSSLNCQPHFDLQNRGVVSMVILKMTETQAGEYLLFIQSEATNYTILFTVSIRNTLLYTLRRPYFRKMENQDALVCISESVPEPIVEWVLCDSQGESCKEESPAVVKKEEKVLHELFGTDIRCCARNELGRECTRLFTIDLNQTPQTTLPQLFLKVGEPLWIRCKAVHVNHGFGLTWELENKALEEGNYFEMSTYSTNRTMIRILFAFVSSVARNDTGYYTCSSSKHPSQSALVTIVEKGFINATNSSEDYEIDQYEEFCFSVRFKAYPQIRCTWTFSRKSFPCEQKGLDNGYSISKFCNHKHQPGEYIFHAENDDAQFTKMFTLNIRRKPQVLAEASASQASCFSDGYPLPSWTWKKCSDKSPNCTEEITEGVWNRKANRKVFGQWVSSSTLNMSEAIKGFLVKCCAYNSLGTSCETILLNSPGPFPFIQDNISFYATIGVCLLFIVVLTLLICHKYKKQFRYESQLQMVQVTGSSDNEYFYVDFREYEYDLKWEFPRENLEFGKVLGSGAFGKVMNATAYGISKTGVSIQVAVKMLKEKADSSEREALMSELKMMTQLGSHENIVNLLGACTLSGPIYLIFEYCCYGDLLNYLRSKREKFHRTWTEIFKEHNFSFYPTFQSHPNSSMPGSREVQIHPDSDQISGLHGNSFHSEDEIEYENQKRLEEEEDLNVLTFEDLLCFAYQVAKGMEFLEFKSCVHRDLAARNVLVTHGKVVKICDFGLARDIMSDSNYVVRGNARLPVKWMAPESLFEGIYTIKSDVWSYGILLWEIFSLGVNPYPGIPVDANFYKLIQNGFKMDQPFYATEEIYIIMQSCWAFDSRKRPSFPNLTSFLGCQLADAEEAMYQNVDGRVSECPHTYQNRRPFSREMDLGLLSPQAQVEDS

Ephrin type-A receptor 1 = target: T2, Ephrin type-A receptor 1 (Homo sapiens, UniProt P21709)
T2 sequence (P21709 whole entry): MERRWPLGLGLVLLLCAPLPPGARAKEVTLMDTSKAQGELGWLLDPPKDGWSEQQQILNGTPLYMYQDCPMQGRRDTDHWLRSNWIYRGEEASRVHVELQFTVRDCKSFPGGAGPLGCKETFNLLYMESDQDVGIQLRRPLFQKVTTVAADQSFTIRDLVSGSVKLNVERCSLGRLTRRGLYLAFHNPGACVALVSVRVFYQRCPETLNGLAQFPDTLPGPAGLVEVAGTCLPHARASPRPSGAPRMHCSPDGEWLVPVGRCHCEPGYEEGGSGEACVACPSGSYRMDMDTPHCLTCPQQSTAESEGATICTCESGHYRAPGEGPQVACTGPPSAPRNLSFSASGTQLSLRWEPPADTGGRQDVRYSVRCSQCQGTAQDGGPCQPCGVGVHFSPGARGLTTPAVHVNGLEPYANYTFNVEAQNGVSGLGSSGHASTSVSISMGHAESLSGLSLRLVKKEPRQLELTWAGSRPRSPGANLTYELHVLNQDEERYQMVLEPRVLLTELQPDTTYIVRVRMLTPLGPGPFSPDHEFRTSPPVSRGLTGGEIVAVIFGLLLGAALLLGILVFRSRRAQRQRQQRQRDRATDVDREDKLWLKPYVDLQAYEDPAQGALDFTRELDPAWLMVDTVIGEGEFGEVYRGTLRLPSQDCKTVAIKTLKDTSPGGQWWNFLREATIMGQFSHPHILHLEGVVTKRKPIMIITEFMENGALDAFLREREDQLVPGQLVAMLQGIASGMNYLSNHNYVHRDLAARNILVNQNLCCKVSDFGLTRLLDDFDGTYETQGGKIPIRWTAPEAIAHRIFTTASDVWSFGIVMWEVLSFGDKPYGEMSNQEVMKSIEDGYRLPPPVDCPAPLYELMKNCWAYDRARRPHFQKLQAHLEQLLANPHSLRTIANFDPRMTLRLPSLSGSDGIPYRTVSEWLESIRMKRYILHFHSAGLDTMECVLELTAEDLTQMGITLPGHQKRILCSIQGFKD

[3] = target: Cell division cycle 7-related protein kinase (Homo sapiens, UniProt O00311)
Cell division cycle 7-related protein kinase, sequence (O00311 whole entry): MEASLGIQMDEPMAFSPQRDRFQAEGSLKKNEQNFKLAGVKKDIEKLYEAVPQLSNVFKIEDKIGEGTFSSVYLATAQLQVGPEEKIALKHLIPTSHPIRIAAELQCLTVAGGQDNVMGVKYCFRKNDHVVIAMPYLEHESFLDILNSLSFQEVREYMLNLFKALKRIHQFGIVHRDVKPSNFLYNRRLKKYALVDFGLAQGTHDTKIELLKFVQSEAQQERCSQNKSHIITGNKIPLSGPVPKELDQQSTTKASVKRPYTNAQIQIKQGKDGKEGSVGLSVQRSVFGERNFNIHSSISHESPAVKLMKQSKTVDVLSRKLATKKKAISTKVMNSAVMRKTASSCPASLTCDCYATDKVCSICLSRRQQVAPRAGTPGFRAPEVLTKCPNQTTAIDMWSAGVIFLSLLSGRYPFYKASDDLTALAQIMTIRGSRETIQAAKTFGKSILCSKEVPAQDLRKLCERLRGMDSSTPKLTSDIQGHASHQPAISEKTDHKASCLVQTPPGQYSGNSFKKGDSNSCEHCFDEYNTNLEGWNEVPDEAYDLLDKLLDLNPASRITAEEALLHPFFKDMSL

[4] = target: Dual specificity testis-specific protein kinase 1 (Homo sapiens, UniProt Q15569)
Dual specificity testis-specific protein kinase 1, sequence (Q15569 whole entry): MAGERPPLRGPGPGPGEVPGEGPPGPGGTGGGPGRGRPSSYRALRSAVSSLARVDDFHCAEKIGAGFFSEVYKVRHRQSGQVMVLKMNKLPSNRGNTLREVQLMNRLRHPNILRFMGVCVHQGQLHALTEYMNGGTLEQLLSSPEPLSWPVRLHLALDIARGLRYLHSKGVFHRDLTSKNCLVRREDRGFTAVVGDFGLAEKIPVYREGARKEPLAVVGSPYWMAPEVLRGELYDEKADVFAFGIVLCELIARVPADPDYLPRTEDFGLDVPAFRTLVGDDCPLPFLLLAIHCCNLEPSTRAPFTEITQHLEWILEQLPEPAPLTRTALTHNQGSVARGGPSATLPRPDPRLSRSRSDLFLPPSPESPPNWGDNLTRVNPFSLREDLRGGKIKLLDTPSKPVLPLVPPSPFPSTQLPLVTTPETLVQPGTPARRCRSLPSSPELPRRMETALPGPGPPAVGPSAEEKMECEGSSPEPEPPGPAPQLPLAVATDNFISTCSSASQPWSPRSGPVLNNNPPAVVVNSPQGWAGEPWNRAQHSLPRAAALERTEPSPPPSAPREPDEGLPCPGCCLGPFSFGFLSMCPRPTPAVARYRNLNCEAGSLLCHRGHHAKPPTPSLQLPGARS

[5] = target: MAP kinase-activated protein kinase 3 (Homo sapiens, UniProt Q16644)
MAP kinase-activated protein kinase 3, sequence (Q16644 whole entry): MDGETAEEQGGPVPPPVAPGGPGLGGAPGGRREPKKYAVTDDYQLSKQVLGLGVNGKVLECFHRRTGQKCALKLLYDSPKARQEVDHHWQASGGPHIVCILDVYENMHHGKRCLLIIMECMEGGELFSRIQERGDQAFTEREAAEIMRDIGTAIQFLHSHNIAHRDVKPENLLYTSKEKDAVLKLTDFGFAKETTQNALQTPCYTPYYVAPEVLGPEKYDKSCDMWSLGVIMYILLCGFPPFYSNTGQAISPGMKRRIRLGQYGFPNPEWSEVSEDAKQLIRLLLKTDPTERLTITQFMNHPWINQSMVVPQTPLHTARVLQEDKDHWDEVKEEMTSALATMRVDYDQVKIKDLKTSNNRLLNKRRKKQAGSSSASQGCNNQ

[6] = target: Cyclin-dependent kinase 17 (Homo sapiens, UniProt Q00537)
Cyclin-dependent kinase 17, sequence (Q00537 whole entry): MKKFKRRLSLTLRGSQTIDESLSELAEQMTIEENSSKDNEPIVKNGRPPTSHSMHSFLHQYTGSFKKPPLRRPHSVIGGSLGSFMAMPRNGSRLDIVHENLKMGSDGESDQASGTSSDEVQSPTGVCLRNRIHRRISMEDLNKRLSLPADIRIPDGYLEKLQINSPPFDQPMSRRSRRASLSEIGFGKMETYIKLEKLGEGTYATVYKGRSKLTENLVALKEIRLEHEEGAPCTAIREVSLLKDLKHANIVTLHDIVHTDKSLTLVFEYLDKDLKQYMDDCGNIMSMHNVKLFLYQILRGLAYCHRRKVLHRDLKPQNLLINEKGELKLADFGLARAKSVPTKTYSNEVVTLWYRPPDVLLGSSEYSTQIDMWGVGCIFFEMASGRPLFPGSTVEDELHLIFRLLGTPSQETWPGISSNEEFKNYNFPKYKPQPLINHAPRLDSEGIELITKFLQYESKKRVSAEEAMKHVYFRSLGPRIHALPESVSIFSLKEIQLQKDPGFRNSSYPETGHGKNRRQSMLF

[7] = target: Dual specificity protein kinase CLK4 (Homo sapiens, UniProt Q9HAZ1)
Dual specificity protein kinase CLK4, sequence (Q9HAZ1 whole entry): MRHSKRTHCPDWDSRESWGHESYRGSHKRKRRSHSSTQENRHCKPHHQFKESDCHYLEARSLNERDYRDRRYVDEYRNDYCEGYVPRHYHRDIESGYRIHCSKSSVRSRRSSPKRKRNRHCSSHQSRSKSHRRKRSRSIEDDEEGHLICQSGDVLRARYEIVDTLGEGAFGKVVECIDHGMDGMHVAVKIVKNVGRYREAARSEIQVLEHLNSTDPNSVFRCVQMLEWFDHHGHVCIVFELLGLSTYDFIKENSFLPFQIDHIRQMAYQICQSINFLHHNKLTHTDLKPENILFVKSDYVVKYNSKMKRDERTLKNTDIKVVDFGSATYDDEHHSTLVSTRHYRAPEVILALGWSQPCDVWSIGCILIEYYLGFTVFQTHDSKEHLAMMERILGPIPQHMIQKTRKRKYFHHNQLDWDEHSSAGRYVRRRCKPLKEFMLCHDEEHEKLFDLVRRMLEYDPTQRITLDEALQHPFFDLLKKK

[8] = target: Dual specificity protein kinase CLK3 (Homo sapiens, UniProt P49761); format: subcellular, K-562, COLO 205, SK-N-BE(2) and MV-4-11, Cell lysate; conditions: read-out: Kd apparent
Dual specificity protein kinase CLK3, sequence (P49761 whole entry): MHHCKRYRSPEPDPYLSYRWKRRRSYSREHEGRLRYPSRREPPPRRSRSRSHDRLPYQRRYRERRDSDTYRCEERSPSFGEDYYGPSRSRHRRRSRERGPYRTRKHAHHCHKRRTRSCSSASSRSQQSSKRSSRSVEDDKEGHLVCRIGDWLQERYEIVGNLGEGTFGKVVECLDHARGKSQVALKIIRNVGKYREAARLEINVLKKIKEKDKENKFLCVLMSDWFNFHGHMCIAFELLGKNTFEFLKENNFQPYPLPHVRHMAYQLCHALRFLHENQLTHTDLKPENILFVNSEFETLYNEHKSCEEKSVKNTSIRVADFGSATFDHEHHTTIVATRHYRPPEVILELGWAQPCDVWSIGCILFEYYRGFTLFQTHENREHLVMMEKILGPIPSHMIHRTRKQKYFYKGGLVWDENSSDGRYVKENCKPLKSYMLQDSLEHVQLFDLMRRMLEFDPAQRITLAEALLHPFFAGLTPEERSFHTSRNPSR
Also: in the data inactive means no Kd found up to 30 µM.

Epidermal growth factor receptor, sequence (P00533 whole entry): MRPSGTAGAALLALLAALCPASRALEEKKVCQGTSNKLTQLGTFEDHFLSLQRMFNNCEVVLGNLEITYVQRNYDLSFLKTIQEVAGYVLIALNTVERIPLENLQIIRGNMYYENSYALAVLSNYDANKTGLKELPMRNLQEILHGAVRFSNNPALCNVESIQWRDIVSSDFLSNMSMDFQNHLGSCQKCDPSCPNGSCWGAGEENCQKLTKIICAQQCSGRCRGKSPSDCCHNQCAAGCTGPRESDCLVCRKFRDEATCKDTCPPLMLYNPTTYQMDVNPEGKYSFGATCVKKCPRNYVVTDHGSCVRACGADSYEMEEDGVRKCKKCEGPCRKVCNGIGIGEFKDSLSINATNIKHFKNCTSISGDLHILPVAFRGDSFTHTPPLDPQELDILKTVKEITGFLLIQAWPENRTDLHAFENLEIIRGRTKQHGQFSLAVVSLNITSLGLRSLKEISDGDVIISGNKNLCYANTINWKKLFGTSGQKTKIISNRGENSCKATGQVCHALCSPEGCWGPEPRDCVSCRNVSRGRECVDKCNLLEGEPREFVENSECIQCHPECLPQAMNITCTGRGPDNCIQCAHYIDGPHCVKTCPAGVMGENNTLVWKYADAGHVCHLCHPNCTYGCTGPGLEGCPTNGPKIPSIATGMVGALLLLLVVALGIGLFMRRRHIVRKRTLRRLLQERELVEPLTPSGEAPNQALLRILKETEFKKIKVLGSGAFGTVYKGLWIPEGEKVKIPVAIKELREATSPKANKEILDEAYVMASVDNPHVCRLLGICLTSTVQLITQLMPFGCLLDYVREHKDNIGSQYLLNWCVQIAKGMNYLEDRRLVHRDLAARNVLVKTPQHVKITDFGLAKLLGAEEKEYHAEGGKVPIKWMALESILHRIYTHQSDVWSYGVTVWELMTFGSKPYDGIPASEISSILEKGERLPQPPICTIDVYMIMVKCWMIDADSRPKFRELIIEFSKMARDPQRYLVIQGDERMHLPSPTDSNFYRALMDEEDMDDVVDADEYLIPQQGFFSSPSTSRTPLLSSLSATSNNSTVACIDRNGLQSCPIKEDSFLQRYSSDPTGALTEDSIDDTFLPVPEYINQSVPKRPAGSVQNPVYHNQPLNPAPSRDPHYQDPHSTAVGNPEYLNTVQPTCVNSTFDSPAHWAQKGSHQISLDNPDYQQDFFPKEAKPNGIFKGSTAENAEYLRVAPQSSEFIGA

Compound	Kd [1]	Kd (Focal adhesion kinase 1)	Kd [2]	Kd (Ephrin type-A receptor 1)	Kd [3]	Kd [4]	Kd [5]	Kd [6]	Kd [7]	Kd [8]
O=c1[nH]c([C@@H]2CCCN2)nc2c1oc1ccc(Cl)cc12	> 30 µM (inactive)	> 30 µM (inactive)	> 30 µM (inactive)	> 30 µM (inactive)	> 30 µM (inactive)	–	–	–	–	–
Cc1c(NC(=O)OC[C@@H]2COCCN2)cn2ncnc(Nc3ccc4c(cnn4Cc4cccc(F)c4)c3)c12 [AC-480]	0.003 µM (active)	> 30 µM (inactive)	> 30 µM (inactive)	> 30 µM (inactive)	–	> 30 µM (inactive)	–	–	–	–
S=C(NCc1ccc2c(c1)OCO2)N1CCN(c2ncnc3c2oc2ccccc23)CC1 [AMUVATINIB]	> 30 µM (inactive)	> 30 µM (inactive)	> 30 µM (inactive)	–	> 30 µM (inactive)	–	> 30 µM (inactive)	> 30 µM (inactive)	> 30 µM (inactive)	–
NC[C@@](O)(c1ccc(Cl)cc1)c1ccc(-c2cn[nH]c2)cc1 [AT-13148]	> 30 µM (inactive)	> 30 µM (inactive)	> 30 µM (inactive)	–	–	–	–	–	–	–
COc1ccc(-c2ccc3ncc4c(c3c2)n(-c2ccc(N3CCNCC3)c(C(F)(F)F)c2)c(=O)n4C)cn1 [BGT-226 FREE BASE]	> 30 µM (inactive)	> 30 µM (inactive)	> 30 µM (inactive)	> 30 µM (inactive)	> 30 µM (inactive)	> 30 µM (inactive)	–	> 30 µM (inactive)	–	–
CCOc1ccn(-c2ccc(F)cc2)c(=O)c1C(=O)Nc1ccc(Oc2ccnc(N)c2Cl)c(F)c1 [BMS-777607]	–	–	–	–	> 30 µM (inactive)	–	–	–	–	–
c1cc(OCCN2CCCCC2)cc(-c2n[nH]c3ccc(-c4nc[nH]n4)cc23)c1 [CC-401]	> 30 µM (inactive)	> 30 µM (inactive)	> 30 µM (inactive)	> 30 µM (inactive)	–	> 30 µM (inactive)	> 30 µM (inactive)	> 30 µM (inactive)	> 30 µM (inactive)	–
CC[C@@](C)(Nc1ccnc(-c2c[nH]c3ncccc23)n1)C(=O)NCC(F)(F)F [DECERNOTINIB]	> 30 µM (inactive)	> 30 µM (inactive)	> 30 µM (inactive)	> 30 µM (inactive)	–	> 30 µM (inactive)	–	0.139 µM (active)	–	–
CNC(=O)c1ccc(Nc2ncc(C(F)(F)F)c(NCc3nccnc3N(C)S(C)(=O)=O)n2)cc1 [DEFACTINIB]	> 30 µM (inactive)	–	0.34 µM (active)	> 30 µM (inactive)	> 30 µM (inactive)	> 30 µM (inactive)	–	> 30 µM (inactive)	–	–
O=S(=O)(c1cccc2cnccc12)N1CCCNCC1 [FASUDIL]	–	–	–	> 30 µM (inactive)	> 30 µM (inactive)	> 30 µM (inactive)	–	> 30 µM (inactive)	–	> 30 µM (inactive)
CCc1nc(C(N)=O)c(Nc2ccc(N3CCC(N4CCN(C)CC4)CC3)c(OC)c2)nc1NC1CCOCC1 [GILTERITINIB]	3.5 µM (active)	> 30 µM (inactive)	–	> 30 µM (inactive)	–	> 30 µM (inactive)	–	> 30 µM (inactive)	> 30 µM (inactive)	–
COc1cc2ncnc3c2cc1OCCCCCN(C)Cc1ccc(Br)cc1N3 [JNJ-26483327]	0.602 µM (active)	> 30 µM (inactive)	> 30 µM (inactive)	> 30 µM (inactive)	–	> 30 µM (inactive)	> 30 µM (inactive)	> 30 µM (inactive)	–	–
C[C@]1(O)C[C@@H](c2nc(-c3ccc4ccc(-c5ccccc5)nc4c3)c3c(N)nccn32)C1 [LINSITINIB]	–	–	–	–	> 30 µM (inactive)	> 30 µM (inactive)	–	> 30 µM (inactive)	–	> 30 µM (inactive)
N#CCNC(=O)c1ccc(-c2ccnc(Nc3ccc(N4CCOCC4)cc3)n2)cc1 [MOMELOTINIB]	–	–	–	–	–	–	–	1.38 µM	–	–
FC(F)(F)c1ccc(CNc2ccc(Cc3c[nH]c4ncc(Cl)cc34)cn2)cn1 [PEXIDARTINIB]	> 30 µM (inactive)	> 30 µM (inactive)	–	> 30 µM (inactive)	> 30 µM (inactive)	> 30 µM (inactive)	> 30 µM (inactive)	> 30 µM (inactive)	> 30 µM (inactive)	–
CN(c1ncccc1CNc1nc(Nc2ccc3c(c2)CC(=O)N3)ncc1C(F)(F)F)S(C)(=O)=O [PF-00562271]	–	–	–	> 30 µM (inactive)	–	> 30 µM (inactive)	–	0.089 µM (active)	> 30 µM (inactive)	> 30 µM (inactive)
CC(C)CC(=O)Nc1[nH]nc2c1CN(C(=O)C1CCN(C)CC1)C2(C)C [PHA-793887]	–	–	> 30 µM (inactive)	> 30 µM (inactive)	> 30 µM (inactive)	–	–	–	–	–
C=CC(=O)Nc1cccc(Nc2nc(Nc3ccc(N4CCN(C(C)=O)CC4)cc3OC)ncc2C(F)(F)F)c1 [ROCILETINIB]	–	0.433 µM (active)	> 30 µM (inactive)	–	–	> 30 µM (inactive)	–	> 30 µM (inactive)	> 30 µM (inactive)	–
C=CCN(/C=C1/C(=O)O[C@H](COC)[C@@]2(C)C1=C(O)C(=O)C1=C2[C@H](OC(C)=O)C[C@]2(C)C(=O)CC[C@@H]12)CC=C [SONOLISIB]	> 30 µM (inactive)	> 30 µM (inactive)	> 30 µM (inactive)	> 30 µM (inactive)	–	> 30 µM (inactive)	–	> 30 µM (inactive)	–	–
CN1CCN(c2nc(C3=C(c4c[nH]c5ccccc45)C(=O)NC3=O)c3ccccc3n2)CC1 [SOTRASTAURIN]	–	> 30 µM (inactive)	> 30 µM (inactive)	> 30 µM (inactive)	> 30 µM (inactive)	> 30 µM (inactive)	–	> 30 µM (inactive)	> 30 µM (inactive)	> 30 µM (inactive)
CC(C)(O)CC(=O)NCCn1ccc2ncnc(Nc3ccc(Oc4cccc(C(F)(F)F)c4)c(Cl)c3)c21 [TAK-285]	–	> 30 µM (inactive)	> 30 µM (inactive)	> 30 µM (inactive)	> 30 µM (inactive)	> 30 µM (inactive)	–	> 30 µM (inactive)	–	–
Cc1cc(C(=O)Nc2cc(Oc3ccc4nc(NC(=O)C5CC5)cn4n3)ccc2C)n(C)n1 [TAK-593]	> 30 µM (inactive)	> 30 µM (inactive)	> 30 µM (inactive)	> 30 µM (inactive)	–	> 30 µM (inactive)	–	–	> 30 µM (inactive)	–
COc1cc2c(N3CCN(C(=O)Nc4ccc(OC(C)C)cc4)CC3)ncnc2cc1OCCCN1CCCCC1 [TANDUTINIB]	–	–	–	–	> 30 µM (inactive)	–	–	–	–	–
CNC(=O)c1cc(COc2nnc(Nc3ccc(Cl)cc3)c3ccoc23)ccn1 [TELATINIB]	> 30 µM (inactive)	> 30 µM (inactive)	> 30 µM (inactive)	> 30 µM (inactive)	–	> 30 µM (inactive)	–	> 30 µM (inactive)	–	–
COc1cc2ncnc(Nc3ccc(O)cc3)c2cc1OC [WHI-P131]	1.16 µM (active)	> 30 µM (inactive)	1.31 µM (active)	> 30 µM (inactive)	–	> 30 µM (inactive)	–	> 30 µM (inactive)	> 30 µM (inactive)	–
